The term IC50 denotes the concentration at which inhibition is half-maximal. Lower therefore signals greater potency in that assay.

In one test the test system is RKO. The test can be described thus: Cytotoxicity against human RKO cells. The class given is functional, cell-based.
`CC(C)=CCC[C@]1(C)[C@@H]2C[C@H]1C(C)=C[C@H]2O[C@H]1O[C@H](CO)[C@@H](O)[C@H](O)[C@H]1O` came in with a half-inhibitory concentration (IC50) above 50 µM.

With `C/C(=C\CC[C@]1(C)[C@H]2CC(=O)[C@@H](C)[C@@H]1C2)CO`, the IC50 was above 50 µM.

In turn, `C/C(=C\CC[C@]1(C)[C@H]2CC(=O)[C@](C)(O)[C@@H]1C2)CO` returned an IC50 above 50 µM.

In turn, `CC(=O)[C@@H]1C[C@H](CC(=O)O)[C@@]1(C)CCC=C(C)C` displayed an IC50 above 50 µM.

Regarding `CC(C)=CCC[C@]1(C)[C@@H]2C[C@H]1[C@@](C)(O)C(=O)[C@H]2O`, the IC50 was above 50 µM.

In the case of `CC(C)=CCC[C@]1(C)[C@@H]2C[C@H]1[C@@](C)(O)C(=O)C2=O`, the IC50 was above 50 µM.

On to `CC(C)=CCC[C@]1(C)[C@H]2CC(=O)[C@](C)(O[C@H]3O[C@H](CO)[C@@H](O)[C@H](O)[C@H]3O)[C@@H]1C2`, for which the IC50 is above 50 µM.

Compound `C/C(=C\CC[C@]1(C)[C@H]2CC(=O)[C@](C)(O)[C@@H]1C2)C(=O)O` came in with an IC50 above 50 µM.

The next test concerns A549. Nature of the test: Cytotoxicity against human A549 cells. The format is functional, cell-based.
On to `CC(C)=CCC[C@]1(C)[C@@H]2C[C@H]1C(C)=C[C@H]2O[C@H]1O[C@H](CO)[C@@H](O)[C@H](O)[C@H]1O`, for which the IC50 is above 50 µM.

Regarding `C/C(=C\CC[C@]1(C)[C@H]2CC(=O)[C@@H](C)[C@@H]1C2)CO`, the IC50 is above 50 µM.

Take `C/C(=C\CC[C@]1(C)[C@H]2CC(=O)[C@](C)(O)[C@@H]1C2)CO`: the IC50 is above 50 µM.

The compound `CC(=O)[C@@H]1C[C@H](CC(=O)O)[C@@]1(C)CCC=C(C)C` gave an IC50 above 50 µM.

Take `CC(C)=CCC[C@]1(C)[C@@H]2C[C@H]1[C@@](C)(O)C(=O)[C@H]2O`: the IC50 is above 50 µM.

Compound `CC(C)=CCC[C@]1(C)[C@@H]2C[C@H]1[C@@](C)(O)C(=O)C2=O` registered an IC50 above 50 µM.

For `CC(C)=CCC[C@]1(C)[C@H]2CC(=O)[C@](C)(O[C@H]3O[C@H](CO)[C@@H](O)[C@H](O)[C@H]3O)[C@@H]1C2`, the IC50 is above 50 µM.

The compound `C/C(=C\CC[C@]1(C)[C@H]2CC(=O)[C@](C)(O)[C@@H]1C2)C(=O)O` had an IC50 above 50 µM.

Another test relates to Staphylococcus aureus. The test can be described thus: Antibacterial activity against methicillin-resistant Staphylococcus aureus. The format is functional, organism-based.
`CC(C)=CCC[C@]1(C)[C@@H]2C[C@H]1C(C)=C[C@H]2O[C@H]1O[C@H](CO)[C@@H](O)[C@H](O)[C@H]1O` had an IC50 above 50 µM.

The compound `C/C(=C\CC[C@]1(C)[C@H]2CC(=O)[C@@H](C)[C@@H]1C2)CO` showed an IC50 above 50 µM.

As for `C/C(=C\CC[C@]1(C)[C@H]2CC(=O)[C@](C)(O)[C@@H]1C2)CO`, the IC50 was above 50 µM.

Compound `CC(=O)[C@@H]1C[C@H](CC(=O)O)[C@@]1(C)CCC=C(C)C` yielded an IC50 above 50 µM.

`CC(C)=CCC[C@]1(C)[C@@H]2C[C@H]1[C@@](C)(O)C(=O)[C@H]2O` gave a half-maximal inhibitory concentration (IC50) above 50 µM.

Turning to `CC(C)=CCC[C@]1(C)[C@@H]2C[C@H]1[C@@](C)(O)C(=O)C2=O`, the IC50 is above 50 µM.

Take `CC(C)=CCC[C@]1(C)[C@H]2CC(=O)[C@](C)(O[C@H]3O[C@H](CO)[C@@H](O)[C@H](O)[C@H]3O)[C@@H]1C2`: the IC50 is above 50 µM.

For `C/C(=C\CC[C@]1(C)[C@H]2CC(=O)[C@](C)(O)[C@@H]1C2)C(=O)O`, the IC50 was above 50 µM.

In a further test the test system is RAW264.7. The test can be described thus: Antiinflammatory activity in mouse RAW264.7 cells. The format is functional, cell-based.
In turn, `CC(C)=CCC[C@]1(C)[C@@H]2C[C@H]1C(C)=C[C@H]2O[C@H]1O[C@H](CO)[C@@H](O)[C@H](O)[C@H]1O` had an IC50 above 50 µM.

As to `C/C(=C\CC[C@]1(C)[C@H]2CC(=O)[C@@H](C)[C@@H]1C2)CO`, the IC50 is above 50 µM.

Consider `C/C(=C\CC[C@]1(C)[C@H]2CC(=O)[C@](C)(O)[C@@H]1C2)CO`, for which the IC50 was above 50 µM.

On to `CC(=O)[C@@H]1C[C@H](CC(=O)O)[C@@]1(C)CCC=C(C)C`, for which the IC50 was above 50 µM.

Turning to `CC(C)=CCC[C@]1(C)[C@@H]2C[C@H]1[C@@](C)(O)C(=O)[C@H]2O`, the IC50 is above 50 µM.

`CC(C)=CCC[C@]1(C)[C@@H]2C[C@H]1[C@@](C)(O)C(=O)C2=O` came in with an IC50 above 50 µM.

In turn, `CC(C)=CCC[C@]1(C)[C@H]2CC(=O)[C@](C)(O[C@H]3O[C@H](CO)[C@@H](O)[C@H](O)[C@H]3O)[C@@H]1C2` had an IC50 above 50 µM.

`C/C(=C\CC[C@]1(C)[C@H]2CC(=O)[C@](C)(O)[C@@H]1C2)C(=O)O` showed an IC50 above 50 µM.

These data come from ChEMBL document CHEMBL6078674, “Genome Mining of the Marine-Derived Fungus Trichoderma erinaceum F1-1 Unearths Bergamotene-Type Sesquiterpenoids” (J Nat Prod, 2024).
